{
  "source": "patent US11331299B2",
  "about": "“Medicinal use of serrulatane diterpenes” (The University of Sydney, priority 2016, dated 2022)",
  "tested_on": "280 human cancer cell lines",
  "test": "OncoPanel cell proliferation assay (10-day)",
  "type": "cell-based",
  "details": "Homo sapiens; for pEC50: read-out: Cell Count EC50; for GI50: read-out: Cell Count GI50; for pIC50: read-out: Cell Count IC50",
  "key": {"[1]": {"details": "NCI-H292, NCI-H292, Lung - NSCLC"}, "[2]": {"details": "NCI-H295R, Endocrine - Adrenal gland"}, "[3]": {"details": "NCI-H441, NCIH441, Lung - NSCLC"}, "[4]": {"details": "NCI-H460, NCI-H460, Lung - NSCLC"}, "[5]": {"details": "NCI-H520, NCI-H520, Lung - NSCLC"}, "[6]": {"details": "NCI-H596, NCI-H596, Lung - NSCLC"}, "[7]": {"details": "NCI-H661, NCI-H661, Lung - NSCLC"}, "[8]": {"details": "NTERA-2-cl-D1, NTERA-2 cl.D1, Testis"}, "[9]": {"details": "OVCAR-3, OVCAR3, Female GU - Ovary"}, "[10]": {"details": "RPMI-7951, RPMI-7951, Skin (Melanoma)"}, "[11]": {"details": "SAOS-2, SaOS2, Soft Tissue - Osteosarcoma"}},
  "note": "pEC50, pIC50: −log10 of the molar value. Where two headings read alike, the source gives them in different places.",
  "data": [
    {"molecule": "CC(C)=CCC[C@H](C)[C@@H]1CC[C@@H](C)c2c1cc(C)c(O)c2O", "note": "[Compound 4, 7,8-dihydroxyserrulat-14-ene]", "values": [
      {"measurement": "pEC50", "setting": "[1]", "value": 5.04},
      {"measurement": "GI50", "setting": "[1]", "value": 9.19, "unit": "µM"},
      {"measurement": "pIC50", "setting": "[1]", "value": 5.04},
      {"measurement": "pEC50", "setting": "[2]", "value": 4.59},
      {"measurement": "GI50", "setting": "[2]", "value": 21.6, "unit": "µM"},
      {"measurement": "pIC50", "setting": "[2]", "value": 4.59},
      {"measurement": "pEC50", "setting": "[3]", "value": 5.32},
      {"measurement": "GI50", "setting": "[3]", "value": "> 30", "unit": "µM"},
      {"measurement": "pIC50", "setting": "[3]", "value": "< 4.52"},
      {"measurement": "pEC50", "setting": "NCI-H446, NCIH446, Lung - SCLC", "value": 5.11},
      {"measurement": "GI50", "setting": "NCI-H446, NCIH446, Lung - SCLC", "value": 7.62, "unit": "µM"},
      {"measurement": "pIC50", "setting": "NCI-H446, NCIH446, Lung - SCLC", "value": 5.11},
      {"measurement": "pEC50", "setting": "[4]", "value": 4.91},
      {"measurement": "GI50", "setting": "[4]", "value": 13, "unit": "µM"},
      {"measurement": "pIC50", "setting": "[4]", "value": 4.89},
      {"measurement": "pEC50", "setting": "NCI-H508, NCI-H508, Colon", "value": "< 4.52"},
      {"measurement": "GI50", "setting": "NCI-H508, NCI-H508, Colon", "value": "> 30", "unit": "µM"},
      {"measurement": "pIC50", "setting": "NCI-H508, NCI-H508, Colon", "value": "< 4.52"},
      {"measurement": "pEC50", "setting": "[5]", "value": 4.68},
      {"measurement": "GI50", "setting": "[5]", "value": 20.6, "unit": "µM"},
      {"measurement": "pIC50", "setting": "[5]", "value": 4.68},
      {"measurement": "pEC50", "setting": "[6]", "value": 4.55},
      {"measurement": "GI50", "setting": "[6]", "value": "> 30", "unit": "µM"},
      {"measurement": "pIC50", "setting": "[6]", "value": "< 4.52"},
      {"measurement": "pEC50", "setting": "[7]", "value": 5.23},
      {"measurement": "GI50", "setting": "[7]", "value": 5.86, "unit": "µM"},
      {"measurement": "pIC50", "setting": "[7]", "value": 5.23},
      {"measurement": "pEC50", "setting": "NCI-H747, NCI-H747, Colon", "value": 4.55},
      {"measurement": "GI50", "setting": "NCI-H747, NCI-H747, Colon", "value": 28.1, "unit": "µM"},
      {"measurement": "pIC50", "setting": "NCI-H747, NCI-H747, Colon", "value": 4.55},
      {"measurement": "pEC50", "setting": "[8]", "value": 5.13},
      {"measurement": "GI50", "setting": "[8]", "value": 7.39, "unit": "µM"},
      {"measurement": "pIC50", "setting": "[8]", "value": 5.13},
      {"measurement": "pEC50", "setting": "OCUG-1, OCUG-1, Liver", "value": 4.81},
      {"measurement": "GI50", "setting": "OCUG-1, OCUG-1, Liver", "value": 15.5, "unit": "µM"},
      {"measurement": "pIC50", "setting": "OCUG-1, OCUG-1, Liver", "value": 4.81},
      {"measurement": "pEC50", "setting": "OE19, OE19, Head and Neck", "value": 4.68},
      {"measurement": "GI50", "setting": "OE19, OE19, Head and Neck", "value": 20.5, "unit": "µM"},
      {"measurement": "pIC50", "setting": "OE19, OE19, Head and Neck", "value": 4.68},
      {"measurement": "pEC50", "setting": "OE21, OE21, Head and Neck", "value": 4.90},
      {"measurement": "GI50", "setting": "OE21, OE21, Head and Neck", "value": 12.7, "unit": "µM"},
      {"measurement": "pIC50", "setting": "OE21, OE21, Head and Neck", "value": 4.90},
      {"measurement": "pEC50", "setting": "[9]", "value": 4.81},
      {"measurement": "GI50", "setting": "[9]", "value": 14.9, "unit": "µM"},
      {"measurement": "pIC50", "setting": "[9]", "value": 4.81},
      {"measurement": "pEC50", "setting": "PA-1, Female GU - Ovary", "value": 5.10},
      {"measurement": "GI50", "setting": "PA-1, Female GU - Ovary", "value": 7.89, "unit": "µM"},
      {"measurement": "pIC50", "setting": "PA-1, Female GU - Ovary", "value": 5.10},
      {"measurement": "pEC50", "setting": "PANC-1, PANC-1, Pancreas", "value": 4.93},
      {"measurement": "GI50", "setting": "PANC-1, PANC-1, Pancreas", "value": 11.6, "unit": "µM"},
      {"measurement": "pIC50", "setting": "PANC-1, PANC-1, Pancreas", "value": 4.93},
      {"measurement": "pEC50", "setting": "PC-3, Prostate", "value": 5.11},
      {"measurement": "GI50", "setting": "PC-3, Prostate", "value": 7.64, "unit": "µM"},
      {"measurement": "pIC50", "setting": "PC-3, Prostate", "value": 5.11},
      {"measurement": "pEC50", "setting": "PFSK-1, PFSK-1, CNS - Glioma", "value": 5.42},
      {"measurement": "GI50", "setting": "PFSK-1, PFSK-1, CNS - Glioma", "value": 3.8, "unit": "µM"},
      {"measurement": "pIC50", "setting": "PFSK-1, PFSK-1, CNS - Glioma", "value": 5.42},
      {"measurement": "pEC50", "setting": "PSN1, PSN-1, Pancreas", "value": 5.30},
      {"measurement": "GI50", "setting": "PSN1, PSN-1, Pancreas", "value": 5.04, "unit": "µM"},
      {"measurement": "pIC50", "setting": "PSN1, PSN-1, Pancreas", "value": 5.30},
      {"measurement": "pEC50", "setting": "RD, Soft Tissue - Sarcoma", "value": 5.28},
      {"measurement": "GI50", "setting": "RD, Soft Tissue - Sarcoma", "value": 5.17, "unit": "µM"},
      {"measurement": "pIC50", "setting": "RD, Soft Tissue - Sarcoma", "value": 5.28},
      {"measurement": "pEC50", "setting": "RKO, Colon", "value": 4.92},
      {"measurement": "GI50", "setting": "RKO, Colon", "value": 12, "unit": "µM"},
      {"measurement": "pIC50", "setting": "RKO, Colon", "value": 4.92},
      {"measurement": "pEC50", "setting": "RKOE6, RKOE6, Colon", "value": 5.17},
      {"measurement": "GI50", "setting": "RKOE6, RKOE6, Colon", "value": 6.76, "unit": "µM"},
      {"measurement": "pIC50", "setting": "RKOE6, RKOE6, Colon", "value": 5.17},
      {"measurement": "pEC50", "setting": "RPMI-6666, RPMI 6666, Lymphoma", "value": 4.64},
      {"measurement": "GI50", "setting": "RPMI-6666, RPMI 6666, Lymphoma", "value": 23, "unit": "µM"},
      {"measurement": "pIC50", "setting": "RPMI-6666, RPMI 6666, Lymphoma", "value": 4.64},
      {"measurement": "pEC50", "setting": "[10]", "value": 5.00},
      {"measurement": "GI50", "setting": "[10]", "value": 9.96, "unit": "µM"},
      {"measurement": "pIC50", "setting": "[10]", "value": 5.00},
      {"measurement": "pEC50", "setting": "RPMI-8226, RPMI 8226, Myeloma", "value": 5.52},
      {"measurement": "GI50", "setting": "RPMI-8226, RPMI 8226, Myeloma", "value": 3.03, "unit": "µM"},
      {"measurement": "pIC50", "setting": "RPMI-8226, RPMI 8226, Myeloma", "value": 5.52},
      {"measurement": "pEC50", "setting": "RS4-11, RS4, 11, Leukemia", "value": 5.38},
      {"measurement": "GI50", "setting": "RS4-11, RS4, 11, Leukemia", "value": 4.16, "unit": "µM"},
      {"measurement": "pIC50", "setting": "RS4-11, RS4, 11, Leukemia", "value": 5.37},
      {"measurement": "pEC50", "setting": "Raji, Lymphoma", "value": 5.41},
      {"measurement": "GI50", "setting": "Raji, Lymphoma", "value": 3.92, "unit": "µM"},
      {"measurement": "pIC50", "setting": "Raji, Lymphoma", "value": 5.41},
      {"measurement": "pEC50", "setting": "Ramos, Ramos (RA 1), Lymphoma", "value": 5.38},
      {"measurement": "GI50", "setting": "Ramos, Ramos (RA 1), Lymphoma", "value": 4.17, "unit": "µM"},
      {"measurement": "pIC50", "setting": "Ramos, Ramos (RA 1), Lymphoma", "value": 5.38},
      {"measurement": "pEC50", "setting": "[11]", "value": 4.97},
      {"measurement": "GI50", "setting": "[11]", "value": 10.7, "unit": "µM"},
      {"measurement": "pIC50", "setting": "[11]", "value": 4.97},
      {"measurement": "pEC50", "setting": "SCC-4, SCC-4, Head and Neck", "value": 4.80},
      {"measurement": "GI50", "setting": "SCC-4, SCC-4, Head and Neck", "value": 15.5, "unit": "µM"},
      {"measurement": "pIC50", "setting": "SCC-4, SCC-4, Head and Neck", "value": 4.80},
      {"measurement": "pEC50", "setting": "SCC-9, SCC-9, Head and Neck", "value": 4.78},
      {"measurement": "GI50", "setting": "SCC-9, SCC-9, Head and Neck", "value": 16.4, "unit": "µM"},
      {"measurement": "pIC50", "setting": "SCC-9, SCC-9, Head and Neck", "value": 4.78},
      {"measurement": "pEC50", "setting": "SCC-25, SCC-25, Head and Neck", "value": 4.60},
      {"measurement": "GI50", "setting": "SCC-25, SCC-25, Head and Neck", "value": 25, "unit": "µM"},
      {"measurement": "pIC50", "setting": "SCC-25, SCC-25, Head and Neck", "value": 4.60},
      {"measurement": "pEC50", "setting": "SCaBER, Bladder", "value": 4.77},
      {"measurement": "GI50", "setting": "SCaBER, Bladder", "value": 16.8, "unit": "µM"}
    ]}
  ]
}
